Reference: US8158811B2, “Unsaturated fatty hydroxy acid derivatives and the dermocosmetologic use thereof” (Pierre Fabre Dermo-Cosmetique, priority 2005, dated 2012)

Legend:
[1] = system: intracellular AOSs, fibroblast line L929; assay: in vitro assay of intracellular AOSs (H2DCF-DA probe) after H2O2/iron oxidative stress; format: cell-based, murin; conditions: pre-incubation 3 h, L929
From the text: We set up an in vitro study model of oxidative stress induced by H2O2/iron as H2O2 generates huge amounts of intracellular AOSs as a result of a chain reaction triggered by oxidation of membrane lipids.
This technique is based on the use of a fluorescent probe, 6-carboxy-2′,7′-dichlorodihydro fluorescein diacetate, di (acetoxymethyl ester) (H2DCF-DA) which once it penetrates into the cell is deacetylated by intracellular esterases and thus forms H2DCF. This product is oxidized by intracellular AOSs into a highly fluorescent compound: 2′,7′-dichlorofluorescein (DCF) (Suematsu M et al., 1996, Free Radicals Practical Approach, Punchard ed. P 83-99).
The materials and methods used for in vitro assay of intracellular AOSs are given below. • a) Cell tool • Cutaneous murin fibroblast cell line L929. • b) Materials • 96 well flat based microplate. • Cytofluor II cytofluorameter: Ref. PERCEPTIVE BIOSYSTEMS. • c) Reagents • Cell culture reagents: • Dulbecco's Modified Eagle Medium as the culture medium (DMEM) • Foetal calf serum • Phosphate buffer PBS pH 7.4 • Trypsin EDTA (1X) Fluorescent probe • 6-carboxy-2′,7′-dichlorodihydrofluorescein diacetate, di(acetoxymethyl ester) (PM.675,43) Cell stimulation products • Hydrogen peroxide (H2O2) 3% Ref. GIFRER (Gifrer Barbezat Laboratory) • Ferrous ammonium sulphate (Fe^2+) • Ferric ammonium sulphate (Fe^3+) • d) Products tested:
For the evaluation of unsaturated fatty hydroxy acid derivatives, the dilutions are prepared in freshly prepared culture medium for a concentration range of 0.02, 0.2, 2 and 20 ng/ml. • e) Protocol. Cell culturing.
Cells from the fibroblast line L929 were cultured in 96-well flat base microplates in 100 μl of DMEM supplemented with 10% foetal calf serum. These were incubated overnight at 37° C. in a humid atmosphere at 5% CO2. The blank plate without cells was evaluated using 6 wells.
Dilutions of the products to be tested and reference molecule were made up in culture medium without foetal calf serum then deposited in 7 wells at a rate of 100 μl per well.
Cells were then incubated for 3 hours at 37° C. in a humid atmosphere at 5% CO2.
Cells were rinsed in PBS 1X at a rate of 100 μl per well. They were then incubated for 30 minutes at 37° C. in a humid atmosphere at 5% CO2 with 50 μl of the H2DCF-DA probe at 5 μM.
After 30 minutes of contact with the probe alone, cells were incubated for 30 minutes at 37° C. in a humid atmosphere at 5% CO2 with the addition of 25 μl of H2O2 at 800 μM and 25 μl of ferrous iron and ferric iron solution at 8 mM in order to obtain final concentrations of 200 μM of H2O2 and 2 mM of ferrous iron and ferric iron.
Cells were then rinsed with PBS 1X at a rate of 100 μl per well then incubated for 30 minutes at 37° C. in a humid atmosphere at 5% CO2 with 100 μl of PBS 1X.
This incubation for 1 h 30 minutes at 37° C. allows intracellular esterases to deacetylate the probe into H2DCF which can be oxidized by the intracellular AOSs into DCF: a fluorescent compound whose formation is proportional to the quantity of intracellular AOSs.
The intensity of fluorescence is read on a cytofluorimeter at λexcitation=485 nm and λemission=530 nm. This reflects the amount of intracellular AOS produced.
The ratio below makes it possible to calculate the % protection against the production of intracellular AOSs for each product concentration tested (because the intensity of fluorescence or IF reflects the release of intracellular AOSs)
• Pre-incubation: 3 h • Number of tests=3 for all compounds. • Number of tests=18 for vit. E

[2] = system: ABCG1; assay: keratinocyte differentiation, real-time RT-PCR of ABCG1 transcripts; format: cell-based, human; conditions: NHK, 48 hours
Procedure: Normal human keratinocytes (NHK) proliferate and differentiate in vitro, forming stratified layers which mimic the basal organisation of the skin. Extracellular calcium concentrations in excess of 0.1 mM initiate a cascade of genome and non-genome events which take the keratinocytes from a proliferative phase towards a differentiation phase. Keratinocyte differentiation can then be evaluated by studying the expression of several markers such as keratins 1 and 10, transglutaminase 1, desaturase DES2, involucrine, FATP4 and ABCG1 transporters. We therefore evaluated the effect of certain hydroxyalcene carboxylic acids in an in vitro culture model.
Normal human keratinocytes are isolated from skin explants. They are cultured in KSFM medium (Gibco) with a low calcium content (0.1 mM) containing 25 μg/ml of BPE (bovine pituitary extract) and […] of EGF (epithelium growth factor). 24 hours after culturing, differentiation is triggered by the addition of calcium (final concentration 1.2 mM). The active ingredients are added or not at the same time as calcium at concentrations of 100 and 1 μg/ml in order to determine whether or not they have a potentialising effect on differentiation. Cells were then analysed 48 hours after the addition of calcium and these products.
Total RNA was extracted under cold conditions from keratinocytes.
After reverse transcription of mRNA into cDNA, PCRs were made up in 96 well plates (iCycler quantitative PCR apparatus, BioRad). Expression of transcripts of transglutaminase, desaturase (DES2), ABCG1 and FATP4 were standardized with respect to the expression of reference genes (GAPDH, UBC, HPRT).

Row | SMILES | Percentage inhibition of the intracellular production of AOS ([1]; 0.02 ng/ml) [%] | Percentage inhibition of the intracellular production of AOS ([1]; 0.2 ng/ml) [%] | Percentage inhibition of the intracellular production of AOS ([1]; 2 ng/ml) [%] | Percentage inhibition of the intracellular production of AOS ([1]; 20 ng/ml) [%] | Induction Factor vs Control (CaCl2 1.2 mM) ABCG1 ([2]; 1 μg/ml) | Induction Factor vs Control (CaCl2 1.2 mM) ABCG1 ([2]; 100 μg/ml)
1 | O=C(O)/C=C/CCCCCCCCCCCCCCO [n=13, R=H, Rn=H, R1=H, 17-hydroxy-heptadec-2t-enoic acid] | 3 | 13 | −1 | −10 | 3.0 | –
2 | O=C(O)C=CCCCCCO [n=4, R=H, Rn=H, R1=H] | 17 | 9 | 9 | 0 | 1.2 | 2.5
3 | O=C(O)C(F)=CCCCCCCCCCCCO [n=10, R=H, Rn=H, R1=F, 14-hydroxy-tetradec-2-fluoro-2-enoic acid] | 29 | 16 | 0 | −19 | 1.4 | 4.6
4 | O=C(O)C(F)=CCCCCCCCCCCCCCCO [n=13, R=H, Rn=H, R1=F, 17-hydroxy-heptadec-2-fluoro-2-enoic acid] | 36 | 28 | 14 | −9 | 4.8 | –
5 | O=C(O)/C=C/CCCCCCCCCCCO [n=10, R=H, Rn=H, R1=H, 14-hydroxy-tetradec-2t-enoic acid] | 11 | 4 | −20 | −34 | 1.4 | 25.5
6 | O=C(O)C=CCCCCO [n=3, R=H, Rn=H, R1=H] | 21 | 15 | 11 | 14 | 1.5 | 4.0
7 | O=C(O)C(F)=CCCCCCO (mixture of isomers) [n=4, R=H, Rn=H, R1=F] | 10 | 6 | −4 | −36 | 2.6 | 2.6
8 | O=C(O)/C=C/CCCCCCCCCCO [n=9, R=H, Rn=H, R1=H, 13-hydroxy-tridec-2t-enoic acid] | 9 | 10 | 6 | −22 | 1.5 | 13.8
